# Assay results reported in patent US4782135A (priority 1983, dated 1988).
# Like-named read-outs stand apart in the source and are kept apart here.
# How the values were obtained:
# coxsackie (COX) A21 = type: cell-based, coxsackie virus
# equine rhinovirus (ER) = type: cell-based
# [1] = test system: herpes simplex virus (HSV) type 1; type: cell-based, herpes simplex virus type 1
# [2] = test system: herpes simplex virus (HSV) type 2; type: cell-based, herpes simplex virus type 2
# [3] = test system: L1210 mouse leukemia cells; test: L1210 tube dilution assay; type: cell-based; details: for ID50: concentration to inhibit L1210 cell growth by 50 percent; for ID90: concentration to inhibit L1210 cell growth by 90 percent
# Excerpt: The L1210 tube dilution assay is described in detail in a publication by L. H. Li, et al., Cancer Research 39: 4816 (1979).
# P388 leukemia = test: In vivo P388 mouse leukemia test; design: species or system mice
# Excerpt: The P388 mouse leukemia test is described in detail in a publication by G. L. Neil, et. al., Cancer Treatment Reports 63, 1971-1978 (1979).
# ^a Schedule of Injection: daily intraperitoneal injection for 9 days
# following tumor implantation.
# ^b Median survival time of control animals = 10.3 days.
# ^a Schedule of injection: Intraperitoneal injection on Day 1, 5, and
# 9, following Tumor inoculation.
# ^b Median survival time of Control (no drug) animals: 10.2 days.
# [4] = for Solubility in organic solvents: methanol, ethanol, isopropanol, dioxane, ethyl acetate, and chloroform
# [5] = ML cells infected with coxsackie A21
# [6] = ML cells infected with equine rhinovirus
# [7] = 30 μg/kg/injection, i.p. on Day 1, 5 and 9
# [8] = 60 μg/kg/injection, i.p. on Day 1, 5 and 9
# [9] = 63 μg/kg/injection, daily i.p. for 9 days
# [10] = 63 μg/kg/injection, daily i.p. for 9 days, control 10.3 days
# [11] = 120 μg/kg/injection, i.p. on Day 1, 5 and 9
# [12] = 125 μg/kg/injection, daily i.p. for 9 days
# [13] = 125 μg/kg/injection, daily i.p. for 9 days, control 10.3 days
# [14] = 250 μg/kg/injection, daily i.p. for 9 days
# [15] = 250 μg/kg/injection, daily i.p. for 9 days, control 10.3 days
# [16] = 250 μg/kg/injection, i.p. on Day 1, 5 and 9
# [17] = 250 μg/kg/injection, i.p. on Day 1, 5 and 9, control 10.2 days
# [18] = 500 μg/kg/injection, daily i.p. for 9 days
# [19] = 500 μg/kg/injection, i.p. on Day 1, 5 and 9
# [20] = 500 μg/kg/injection, i.p. on Day 1, 5 and 9, control 10.2 days
# [21] = 1000 μg/kg/injection, i.p. on Day 1, 5 and 9
# [22] = 1000 μg/kg/injection, i.p. on Day 1, 5 and 9, control 10.2 days
# [23] = uninfected ML cells, 50% cell destruction, overnight incubation
# [24] = uninfected Vero cells, 50% cell destruction, overnight incubation
# [25] = 1000 μg/kg/injection, daily i.p. for 9 days
# [26] = 2000 μg/kg/injection, daily i.p. for 9 days
# [27] = 2000 μg/kg/injection, i.p. on Day 1, 5 and 9
# [28] = 4000 μg/kg/injection, i.p. on Day 1, 5 and 9
# [29] = 8000 μg/kg/injection, i.p. on Day 1, 5 and 9
substance,measurement,setting,value
didemnin C,ID50 Antiviral-cox virus,coxsackie (COX) A21,< 1.5
same,"Ratio (cytotoxic concentration ÷ antiviral concentration), cox virus",coxsackie (COX) A21,> 4
same,ID50 Antiviral-ER virus,equine rhinovirus (ER),< 1.5
same,"Ratio (cytotoxic concentration ÷ antiviral concentration), ER virus",equine rhinovirus (ER),> 4
same,ID50 Antiviral-HSV-1 virus,[1],< 1.5
same,"Ratio (cytotoxic concentration ÷ antiviral concentration), HSV-1 virus",[1],> 33
same,ID50 Antiviral-HSV-2 virus,[2],< 1.5
same,"Ratio (cytotoxic concentration ÷ antiviral concentration), HSV-2 virus",[2],> 33
same,ID50 Toxicity-ML cells,ML cells,6
same,ID50 Toxicity-Vero cells,Vero cells,50
didemnin B,ID50 Antiviral-cox virus,coxsackie (COX) A21; [5],< 1.5 µg/mL
same,ID50 Antiviral-ER virus,equine rhinovirus (ER); [6],< 1.5 µg/mL
same,"Ratio (cytotoxic concentration ÷ antiviral concentration), HSV-1 virus",[1]; Vero cells,8
same,ID50 Antiviral-HSV-1 virus,[1]; Vero cells infected with HSV-1,1.5 µg/mL
same,"Ratio (cytotoxic concentration ÷ antiviral concentration), HSV-2 virus",[2]; Vero cells,8
same,ID50 Antiviral-HSV-2 virus,[2]; Vero cells infected with HSV-2,1.5 µg/mL
same,ID50,[3],0.0018 µg/mL
same,ID90,[3],0.0059 µg/mL
same,Inhibition of growth of L1210 mouse leukemia cells in vitro (words),[3],inhibit the growth
same,Inhibition of growth of L1210 mouse leukemia cells in vitro (words),[3]; listed as didemnin B,inhibit
same,T/C,P388 leukemia; [7],125%
same,Weight Change,P388 leukemia; [7],+1.6 g
same,Median Survival Time,"P388 leukemia; 30 μg/kg/injection, i.p. on Day 1, 5 and 9, control 10.2 days",12.8 days
same,T/C,P388 leukemia; [8],140%
same,Weight Change,P388 leukemia; [8],+1.2 g
same,Median Survival Time,"P388 leukemia; 60 μg/kg/injection, i.p. on Day 1, 5 and 9, control 10.2 days",14.3 days
same,T/C,P388 leukemia; [9],143%
same,Weight Change,P388 leukemia; [9],+0.1 g
same,Median Survival Time,P388 leukemia; [10],14.8 days
same,T/C,P388 leukemia; [11],147%
same,Weight Change,P388 leukemia; [11],+0.2 g
same,Median Survival Time,"P388 leukemia; 120 μg/kg/injection, i.p. on Day 1, 5 and 9, control 10.2 days",15.0 days
same,T/C,P388 leukemia; [12],136%
same,Weight Change,P388 leukemia; [12],-0.6 g
same,Median Survival Time,P388 leukemia; [13],14.0 days
same,T/C,P388 leukemia; [14],138%
same,Weight Change,P388 leukemia; [14],-2.2 g
same,Median Survival Time,P388 leukemia; [15],14.2 days
same,T/C,P388 leukemia; [16],157%
same,Weight Change,P388 leukemia; [16],-0.5 g
same,Median Survival Time,P388 leukemia; [17],16.0 days
same,Weight Change,P388 leukemia; [18],-3.4 g
same,T/C,P388 leukemia; [19],176%
same,Weight Change,P388 leukemia; [19],-1.7 g
same,Median Survival Time,P388 leukemia; [20],18.0 days
same,T/C,P388 leukemia; [21],199%
same,Weight Change,P388 leukemia; [21],-3.8 g
same,Median Survival Time,P388 leukemia; [22],20.3 days
same,Activity in vivo against P388 leukemia in mice,P388 leukemia,active
same,ID50 Toxicity-ML cells,ML cells; [23],< 1.5 µg/mL
same,ID50 Toxicity-Vero cells,Vero cells; [24],12 µg/mL
same,Solubility in organic solvents,[4],soluble
same,Solubility in toluene,[4],sparingly soluble
same,Solubility in water,[4],insoluble
didemnin A,"Ratio (cytotoxic concentration ÷ antiviral concentration), cox virus",coxsackie (COX) A21; ML cells,17
same,ID50 Antiviral-cox virus,coxsackie (COX) A21; [5],1.5 µg/mL
same,"Ratio (cytotoxic concentration ÷ antiviral concentration), ER virus",equine rhinovirus (ER); ML cells,17
same,ID50 Antiviral-ER virus,equine rhinovirus (ER); [6],1.5 µg/mL
same,"Ratio (cytotoxic concentration ÷ antiviral concentration), HSV-1 virus",[1]; Vero cells,17
same,ID50 Antiviral-HSV-1 virus,[1]; Vero cells infected with HSV-1,3 µg/mL
same,"Ratio (cytotoxic concentration ÷ antiviral concentration), HSV-2 virus",[2]; Vero cells,33
same,ID50 Antiviral-HSV-2 virus,[2]; Vero cells infected with HSV-2,1.5 µg/mL
same,ID50,[3],0.019 µg/mL
same,ID90,[3],0.058 µg/mL
same,Inhibition of growth of L1210 mouse leukemia cells in vitro (words),[3],inhibit the growth
same,T/C,P388 leukemia; [9],104%
same,Weight Change,P388 leukemia; [9],+0.9 g
same,Median Survival Time,P388 leukemia; [10],10.7 days
same,T/C,P388 leukemia; [12],115%
same,Weight Change,P388 leukemia; [12],+1.4 g
same,Median Survival Time,P388 leukemia; [13],11.9 days
same,T/C,P388 leukemia; [14],119%
same,Weight Change,P388 leukemia; [14],+1.0 g
same,Median Survival Time,P388 leukemia; [15],12.2 days
same,T/C,P388 leukemia; [16],109%
same,Weight Change,P388 leukemia; [16],+1.7 g
same,Median Survival Time,P388 leukemia; [17],11.1 days
same,T/C,P388 leukemia; [18],129%
same,Weight Change,P388 leukemia; [18],+0.9 g
same,Median Survival Time,"P388 leukemia; 500 μg/kg/injection, daily i.p. for 9 days, control 10.3 days",13.2 days
same,T/C,P388 leukemia; [19],118%
same,Weight Change,P388 leukemia; [19],+1.6 g
same,Median Survival Time,P388 leukemia; [20],12.1 days
same,T/C,P388 leukemia; [25],158%
same,Weight Change,P388 leukemia; [25],+0.3 g
same,Median Survival Time,"P388 leukemia; 1000 μg/kg/injection, daily i.p. for 9 days, control 10.3 days",16.2 days
same,T/C,P388 leukemia; [21],118%
same,Weight Change,P388 leukemia; [21],+1.8 g
same,Median Survival Time,P388 leukemia; [22],12.1 days
same,T/C,P388 leukemia; [26],155%
same,Weight Change,P388 leukemia; [26],-0.2 g
same,Median Survival Time,"P388 leukemia; 2000 μg/kg/injection, daily i.p. for 9 days, control 10.3 days",16.0 days
same,T/C,P388 leukemia; [27],121%
same,Weight Change,P388 leukemia; [27],+2.0 g
same,Median Survival Time,"P388 leukemia; 2000 μg/kg/injection, i.p. on Day 1, 5 and 9, control 10.2 days",12.4 days
same,T/C,P388 leukemia; [28],130%
same,Weight Change,P388 leukemia; [28],+1.3 g
same,Median Survival Time,"P388 leukemia; 4000 μg/kg/injection, i.p. on Day 1, 5 and 9, control 10.2 days",13.3 days
same,T/C,P388 leukemia; [29],140%
same,Weight Change,P388 leukemia; [29],+0.8 g
same,Median Survival Time,"P388 leukemia; 8000 μg/kg/injection, i.p. on Day 1, 5 and 9, control 10.2 days",14.3 days
same,Activity in vivo against P388 leukemia in mice,P388 leukemia,active
same,ID50 Toxicity-ML cells,ML cells; [23],25 µg/mL
same,ID50 Toxicity-Vero cells,Vero cells; [24],50 µg/mL
same,Solubility in organic solvents,[4],soluble
same,Solubility in toluene,[4],sparingly soluble
same,Solubility in water,[4],insoluble
